This experiment has as its system HCV proteins in Rep5.1 cells (replicon cell line). The experiment can be described thus: Inhibitory activity of HCV: cell-based ELISA in replicon cell line Rep5.1 (decrease of HCV proteins). Set-up: species or system hepatitis C virus. Conditions: Rep5.1 cells, 72 hours with drug. An outline of the steps:
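HCV protein loss was quantified by ELISA on methanol/acetone-fixed cells 72 h after drug addition, probing with selected HCV-positive human plasma, and IC50 was defined as 50% reduction relative to untreated wells. The cells were Rep5.1 replicon cells cultured in DMEM-10 with 500 μg/ml G418, plated at 5000 per well and dosed with serial dilutions after 4 h attachment.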

The mark [1] stands for this setting: Hepatitis C virus, 72 h, concentration at which 50% of HCV proteins was decreased, Table 2, read-out: IC50.
Where [2] appears, read: Hepatitis C virus, 72 h, decrease of HCV proteins measured by HCV antibody, Table 1, read-out: Level (IC50 values classified).
Where [3] appears, read: concentration at which 50% of HCV proteins was decreased, Table 2, read-out: IC50.

Read-outs that look alike come from different tables or passages of the source. Some results are limits rather than exact numbers.

One may read the IC50 as the point on the concentration scale where inhibition reaches its midpoint. For `CC1=C(C(=O)OCc2cc3ccccc3s2)CNC(=S)N1` [Compound 219, 6-methyl-2-thioxo-1,2,3,4-tetrahydro-pyrimidine-5-carboxylic acid benzo[b]thiophen-2-ylmethyl ester], the IC50 runs as follows: under setting [1], below 400 nM; under setting [2], below 1000 nM.
The like results for `CC1=C(C(=O)OCc2sccc2-n2cccc2)CNC(=S)N1` [Compound 220, 6-methyl-2-thioxo-1,2,3,4-tetrahydro-pyrimidine-5-carboxylic acid 3-pyrrol-1-yl-thiophen-2-ylmethyl ester] were, in that order, 800 nM and below 1000 nM.
In the same order, the values of `CC1=C(C(=O)OCc2ccc(-c3cnc(C)s3)s2)CNC(=S)N1` [Compound 221, 6-methyl-2-thioxo-1,2,3,4-tetrahydro-pyrimidine-5-carboxylic acid 5-(2-methyl-thiazol-5-yl)-thiophen-2-ylmethyl ester] are 2500 nM and 1000 to 10000 nM.
In the same order, the values of `CC1=C(C(=O)OCc2ccc(-c3cc(C(F)(F)F)n(C)n3)s2)CNC(=S)N1` [Compound 222, 6-methyl-2-thioxo-1,2,3,4-tetrahydro-pyrimidine-5-carboxylic acid 5-(1-methyl-5-trifluoromethyl-1H-pyrazol-3-yl)-thiophen-2-ylmethyl ester] are below 400 nM and below 1000 nM.
`CC1=C(C(=O)OCc2cc3c(C)nn(C)c3s2)CNC(=S)N1` [Compound 223, 6-methyl-2-thioxo-1,2,3,4-tetrahydro-pyrimidine-5-carboxylic acid 1,3-dimethyl-1H-thieno[2,3-c]pyrazol-5-ylmethyl ester]: the IC50 under setting [1] stood at 6000 nM and the IC50 under setting [2] was in the range of 1000 to 10000 nM.
In the case of `CC1=C(C(=O)OCCSc2nc3ccccc3s2)CNC(=S)N1` [Compound 224, 6-methyl-2-thioxo-1,2,3,4-tetrahydro-pyrimidine-5-carboxylic acid 2-(benzothiazol-2-ylsulfanyl)-ethyl ester], the IC50 was 700 nM under setting [1] and below 1000 nM under setting [2].
For the molecule `CC1=C(C(=O)OCn2nnc3ccccc32)CNC(=S)N1` [Compound 225, 6-methyl-2-thioxo-1,2,3,4-tetrahydro-pyrimidine-5-carboxylic acid benzotriazol-1-ylmethyl ester], the IC50 by setting is: under setting [1], above 100000 nM; under setting [2], above 20000 nM.
The like results for `CC1=C(C(=O)OCc2nc3ccccc3s2)CNC(=S)N1` [Compound 226, 6-methyl-2-thioxo-1,2,3,4-tetrahydro-pyrimidine-5-carboxylic acid benzothiazol-2-ylmethyl ester] were, in that order, 2200 nM and 1000 to 10000 nM.
The like results for `COc1ccc(COc2ccc(COC(=O)C3=C(C)NC(=S)NC3)cc2)cc1` [Compound 227, 6-methyl-2-thioxo-1,2,3,4-tetrahydro-pyrimidine-5-carboxylic acid 4-(4-methoxy-benzyloxy)-benzyl ester] were, in that order, below 400 nM and below 1000 nM.
For the molecule `CC1=C(C(=O)OCc2ccc(OC(=O)OC(C)(C)C)cc2)CNC(=S)N1` [Compound 228, 6-methyl-2-thioxo-1,2,3,4-tetrahydro-pyrimidine-5-carboxylic acid 4-t-butoxycarbonyloxy-benzyl ester], the IC50 by setting is: under setting [1], 23000 nM; under setting [2], 10000 to 20000 nM.
On to `CC1=C(C(=O)OCc2ccc(O)cc2)CNC(=S)N1` [Compound 229, 6-methyl-2-thioxo-1,2,3,4-tetrahydro-pyrimidine-5-carboxylic acid 4-hydroxy-benzyl ester], for which the half-maximal inhibitory concentration (IC50) was above 100000 nM under setting [1] and above 20000 nM under setting [2].
Take `CC1=C(C(=O)OCc2ccn(S(=O)(=O)c3ccc(C)cc3)c2)CNC(=S)N1` [Compound 230, 6-methyl-2-thioxo-1,2,3,4-tetrahydro-pyrimidine-5-carboxylic acid 1-(toluene-4-sulfonyl)-1H-pyrrol-3-ylmethyl ester]: the half-inhibitory concentration (IC50) by setting is: under setting [1], below 400 nM; under setting [2], below 1000 nM.
Take `CC1=C(C(=O)OCc2ccccc2C)CNC(=S)N1` [Compound 231, 6-methyl-2-thioxo-1,2,3,4-tetrahydro-pyrimidine-5-carboxylic acid 2-methyl-benzyl ester]: the IC50 was 700 nM under setting [1] and below 1000 nM under setting [2].
The like results for `CC1=C(C(=O)OCc2ccc(C)s2)CNC(=S)N1` [Compound 232, 6-methyl-2-thioxo-1,2,3,4-tetrahydro-pyrimidine-5-carboxylic acid 5-methyl-thiophen-2-ylmethyl ester] were, in that order, 20000 nM and 10000 to 20000 nM.
The like results for `CC1=C(C(=O)OCc2ccc(Cl)s2)CNC(=S)N1` [Compound 233, 6-methyl-2-thioxo-1,2,3,4-tetrahydro-pyrimidine-5-carboxylic acid 5-chloro-thiophen-2-ylmethyl ester] were, in that order, 200 nM and below 1000 nM.
On to `CC1=C(C(=O)OCc2ccccc2)C(C(F)(F)F)NC(=S)N1` (stereo not shown) [Compound 234, 6-methyl-2-thioxo-4-trifluoromethyl-1,2,3,4-tetrahydro-pyrimidine-5-carboxylic acid benzyl ester], for which the 50% inhibitory concentration (IC50) reads like this: under setting [1], 100000 nM; under setting [2], above 20000 nM.
In the case of `CC1=C(C(=O)OCc2cc3ccsc3s2)CNC(=S)N1` [Compound 235, 6-methyl-2-thioxo-1,2,3,4-tetrahydro-pyrimidine-5-carboxylic acid thieno[2,3-b]thiophen-2-ylmethyl ester], the concentration for half-maximal inhibition (IC50) by setting is: under setting [1], 900 nM; under setting [2], below 1000 nM.
As for `CCOCC#CCOC(=O)C1=C(C)NC(=S)NC1` [Compound 236, 6-methyl-2-thioxo-1,2,3,4-tetrahydro-pyrimidine-5-carboxylic acid 4-ethoxy-but-2-inyl ester], the half-inhibitory concentration (IC50) under setting [3] came out at 14000 nM.
On the same count and under the same terms, the result for `CCCOCC#CCOC(=O)C1=C(C)NC(=S)NC1` [Compound 237, 6-methyl-2-thioxo-1,2,3,4-tetrahydro-pyrimidine-5-carboxylic acid 4-propoxy-but-2-inyl ester] reads 1700 nM.
For the molecule `CC1=C(C(=O)OCc2nc3ccccc3o2)CNC(=S)N1` [Compound 238, 6-methyl-2-thioxo-1,2,3,4-tetrahydro-pyrimidine-5-carboxylic acid benzoxazol-2-ylmethyl ester], the IC50 is 3000 nM under setting [1] and 1000 to 10000 nM under setting [2].
Turning to `CC1=C(C(=O)OCC#Cc2cccs2)CNC(=S)N1` [Compound 239, 6-methyl-2-thioxo-1,2,3,4-tetrahydro-pyrimidine-5-carboxylic acid 3-thiophen-2-yl-prop-2-inyl ester], under setting [3], the IC50 is below 400 nM.
The same measure, in the same setting: to `CC1=C(C(=O)OCC#Cc2ccsc2)CNC(=S)N1` [Compound 240, 6-methyl-2-thioxo-1,2,3,4-tetrahydro-pyrimidine-5-carboxylic acid 3-thiophen-3-yl-prop-2-inyl ester] belongs below 400 nM.
On to `CC1=C(C(=O)OCc2nc3ccccc3n2C)CNC(=S)N1` [Compound 241, 6-methyl-2-thioxo-1,2,3,4-tetrahydro-pyrimidine-5-carboxylic acid 1-methyl-1H-benzoimidazol-2-ylmethyl ester], for which the IC50 is, setting by setting: under setting [1], 97000 nM; under setting [2], above 20000 nM.
For `CC1=C(C(=O)OCc2ccc3nnn(C)c3c2)CNC(=S)N1` [Compound 242, 6-methyl-2-thioxo-1,2,3,4-tetrahydro-pyrimidine-5-carboxylic acid 3-methyl-3H-benzotriazol-5-ylmethyl ester], the 50% inhibitory concentration (IC50) runs as follows: under setting [1], 63000 nM; under setting [2], above 20000 nM.
In the same order, the values of `CC1=C(C(=O)OCCCc2ccsc2)CNC(=S)N1` [Compound 243, 6-methyl-2-thioxo-1,2,3,4-tetrahydro-pyrimidine-5-carboxylic acid 3-thiophen-3-yl-propyl ester] are below 400 nM and below 1000 nM.
Turning to `CC1=C(C(=O)OCC=Cc2ccsc2)CNC(=S)N1` [Compound 244, 6-methyl-2-thioxo-1,2,3,4-tetrahydro-pyrimidine-5-carboxylic acid 3-thiophen-3-yl-allyl ester], the 50% inhibitory concentration (IC50) reads like this: under setting [1], 500 nM; under setting [2], below 1000 nM.
Regarding `C=CCOCC#CCOC(=O)C1=C(C)NC(=S)NC1` [Compound 245, 6-methyl-2-thioxo-1,2,3,4-tetrahydro-pyrimidine-5-carboxylic acid 4-allyloxy-but-2-inyl ester], the IC50 under setting [3] is 2700 nM.
Same read-out and setting: to `C#CC(C)OCC#CCOC(=O)C1=C(C)NC(=S)NC1` (stereo not shown) [Compound 246, 6-methyl-2-thioxo-1,2,3,4-tetrahydro-pyrimidine-5-carboxylic acid 4-(1-methyl-prop-2-inyloxy)-but-2-inyl ester] belongs 68000 nM.
With `CC1=C(C(=O)OCCc2ccsc2Br)CNC(=S)N1` [Compound 247, 6-methyl-2-thioxo-1,2,3,4-tetrahydro-pyrimidine-5-carboxylic acid 2-(2-bromo-thiophen-3-yl)-ethyl ester], the half-inhibitory concentration (IC50) runs as follows: under setting [1], below 400 nM; under setting [2], below 1000 nM.
In the same order, the values of `CC1=C(C(=O)OCc2ccc3ncsc3c2)CNC(=S)N1` [Compound 248, 6-methyl-2-thioxo-1,2,3,4-tetrahydro-pyrimidine-5-carboxylic acid benzothiazol-6-ylmethyl ester] are 5000 nM and 1000 to 10000 nM.
The like results for `CC1=C(C(=O)OCCc2ccsc2F)CNC(=S)N1` [Compound 249, 6-methyl-2-thioxo-1,2,3,4-tetrahydro-pyrimidine-5-carboxylic acid 2-(2-fluoro-thiophen-3-yl)-ethyl ester] were, in that order, below 400 nM and below 1000 nM.
Turning to `CC1=C(C(=O)OCCCc2ccco2)CNC(=S)N1` [Compound 250, 6-methyl-2-thioxo-1,2,3,4-tetrahydro-pyrimidine-5-carboxylic acid 3-furan-2-yl-propyl ester], the IC50 was 400 nM under setting [1] and below 1000 nM under setting [2].

These data come from patent US20060116390A1, “Hepatitis c virus inhibitors” (priority 2003, published 2006).
